PubChem BioAssay AID1963850 (Molecular Pharmacology Branch, DTP, NCI, 2024)

System: 192522-019-R-J2-PDC complex tumor spheroid viability
Assay: Anticancer human tumor 192522-019-R-J2-PDC patient-derived colon adenocarcinoma cell line growth inhibition [POLQ]
Settings: for IC50: curve of first compound; for viability, T/C: stronger effect = lower value
Procedure, shortened: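 Growth inhibition in 3D: complex spheroids (tumor PDC, HUVEC, MSC) treated with POLQ inhibitor combinations; where Cmax unknown, highest tested concentration 10 microM, except SN-38 at 1 microM.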

[1] = second compound 0.0316 µM, first compound 0.00316 µM
[2] = second compound 0.0316 µM, first compound 0.01 µM
[3] = second compound 0.0316 µM, first compound 0.0316 µM
[4] = second compound 0.0316 µM, first compound 0.1 µM
[5] = second compound 0.0316 µM, first compound 0.316 µM
[6] = second compound 0.0316 µM, first compound 1 µM
[7] = second compound 0.1 µM, first compound 0.00316 µM
[8] = second compound 0.1 µM, first compound 0.01 µM
[9] = second compound 0.1 µM, first compound 0.0316 µM
[10] = second compound 0.1 µM, first compound 0.1 µM
[11] = second compound 0.1 µM, first compound 0.316 µM
[12] = second compound 0.1 µM, first compound 1 µM
[13] = second compound 0.316 µM, first compound 0.00316 µM
[14] = second compound 0.316 µM, first compound 0.01 µM
[15] = second compound 0.316 µM, first compound 0.0316 µM
[16] = second compound 0.316 µM, first compound 0.1 µM
[17] = second compound 0.316 µM, first compound 0.316 µM
[18] = second compound 0.316 µM, first compound 1 µM
[19] = second compound 1 µM, first compound 0.00316 µM
[20] = second compound 1 µM, first compound 0.01 µM
[21] = second compound 1 µM, first compound 0.0316 µM
[22] = second compound 1 µM, first compound 0.1 µM
[23] = second compound 1 µM, first compound 0.316 µM
[24] = second compound 1 µM, first compound 1 µM
[25] = second compound 3.16 µM, first compound 0.00316 µM
[26] = second compound 3.16 µM, first compound 0.01 µM
[27] = second compound 3.16 µM, first compound 0.0316 µM
[28] = second compound 3.16 µM, first compound 0.1 µM
[29] = second compound 3.16 µM, first compound 0.316 µM
[30] = second compound 3.16 µM, first compound 1 µM
[31] = second compound 10 µM, first compound 0.00316 µM
[32] = second compound 10 µM, first compound 0.01 µM
[33] = second compound 10 µM, first compound 0.0316 µM
[34] = second compound 10 µM, first compound 0.1 µM
[35] = second compound 10 µM, first compound 0.316 µM
[36] = second compound 10 µM, first compound 1 µM
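Note: spheroids exposed to drugs for seven days before reading.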
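Throughout, for viability, T/C: 100% = DMSO vehicle control viability in luminescence.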

## COc1cccc(OCCCN)c1-c1cc(Nc2cnc(C#N)cn2)n[nH]1 + COC1C(OC(N)=O)C(O)C(Oc2ccc3c(O)c(NC(=O)c4ccc(O)c(CC=C(C)C)c4)c(=O)oc3c2C)OC1(C)C
Second compound 0.0316 µM
  IC50: 14.3 nM
Second compound 0.1 µM
  IC50: 15.7 nM
Second compound 0.316 µM
  IC50: 15.8 nM
Second compound 1 µM
  IC50: 16.6 nM
Second compound 3.16 µM
  IC50: 18.6 nM
Second compound 10 µM
  IC50: 18.9 nM
[1]
  viability, T/C: 96%
[2]
  viability, T/C: 55.5%
[3]
  viability, T/C: 38%
[4]
  viability, T/C: 30.8%
[5]
  viability, T/C: 30.7%
[6]
  viability, T/C: 30.5%
[7]
  viability, T/C: 94.7%
[8]
  viability, T/C: 58.7%
[9]
  viability, T/C: 35.3%
[10]
  viability, T/C: 35%
[11]
  viability, T/C: 28.9%
[12]
  viability, T/C: 28.2%
[13]
  viability, T/C: 90%
[14]
  viability, T/C: 60.6%
[15]
  viability, T/C: 33.6%
[16]
  viability, T/C: 31.8%
[17]
  viability, T/C: 27.2%
[18]
  viability, T/C: 29.9%
[19]
  viability, T/C: 84.8%
[20]
  viability, T/C: 61.8%
[21]
  viability, T/C: 35.2%
[22]
  viability, T/C: 30.1%
[23]
  viability, T/C: 30.9%
[24]
  viability, T/C: 30.5%
[25]
  viability, T/C: 87.6%
[26]
  viability, T/C: 69.5%
[27]
  viability, T/C: 33.3%
[28]
  viability, T/C: 28.9%
[29]
  viability, T/C: 35.6%
[30]
  viability, T/C: 32.1%
[31]
  viability, T/C: 89.7%
[32]
  viability, T/C: 64.6%
[33]
  viability, T/C: 38.4%
[34]
  viability, T/C: 32%
[35]
  viability, T/C: 32.5%
[36]
  viability, T/C: 34%

## CCc1c2c(nc3ccc(O)cc13)-c1cc3c(c(=O)n1C2)COC(=O)[C@]3(O)CC + COC1C(OC(N)=O)C(O)C(Oc2ccc3c(O)c(NC(=O)c4ccc(O)c(CC=C(C)C)c4)c(=O)oc3c2C)OC1(C)C
Second compound 0.0316 µM
  IC50: 25.4 nM
Second compound 0.1 µM
  IC50: 51.5 nM
Second compound 0.316 µM
  IC50: 41.9 nM
Second compound 1 µM
  IC50: 33.9 nM
Second compound 3.16 µM
  IC50: 42.2 nM
Second compound 10 µM
  IC50: 43.4 nM
[1]
  viability, T/C: 96.3%
[2]
  viability, T/C: 52.5%
[3]
  viability, T/C: 52.3%
[4]
  viability, T/C: 47%
[5]
  viability, T/C: 35.1%
[6]
  viability, T/C: 23.8%
[7]
  viability, T/C: 84%
[8]
  viability, T/C: 59%
[9]
  viability, T/C: 55.8%
[10]
  viability, T/C: 49.7%
[11]
  viability, T/C: 31.7%
[12]
  viability, T/C: 27.5%
[13]
  viability, T/C: 83.7%
[14]
  viability, T/C: 56%
[15]
  viability, T/C: 53.7%
[16]
  viability, T/C: 47.5%
[17]
  viability, T/C: 31.4%
[18]
  viability, T/C: 25.8%
[19]
  viability, T/C: 82%
[20]
  viability, T/C: 52.3%
[21]
  viability, T/C: 57.9%
[22]
  viability, T/C: 43.3%
[23]
  viability, T/C: 30.1%
[24]
  viability, T/C: 27.9%
[25]
  viability, T/C: 86.7%
[26]
  viability, T/C: 57.3%
[27]
  viability, T/C: 57.9%
[28]
  viability, T/C: 40.3%
[29]
  viability, T/C: 35.9%
[30]
  viability, T/C: 23.8%
[31]
  viability, T/C: 83.3%
[32]
  viability, T/C: 54.6%
[33]
  viability, T/C: 59.4%
[34]
  viability, T/C: 41.9%
[35]
  viability, T/C: 35.5%
[36]
  viability, T/C: 27.8%

## CC(=O)O[C@H]1C(=O)[C@@]2(C)[C@H]([C@H](OC(=O)c3ccccc3)[C@]3(O)C[C@H](OC(=O)[C@H](O)[C@@H](NC(=O)c4ccccc4)c4ccccc4)C(C)=C1C3(C)C)[C@]1(OC(C)=O)CO[C@@H]1C[C@@H]2O + Nc1ccc(C#CCN(C(=O)Cc2ncc(C(F)(F)F)cc2C(F)(F)F)c2ccc(F)cc2)nn1
Second compound 0.0316 µM
  IC50: > 3000 nM
Second compound 0.1 µM
  IC50: > 3000 nM
Second compound 0.316 µM
  IC50: > 3000 nM
Second compound 1 µM
  IC50: > 3000 nM
Second compound 3.16 µM
  IC50: > 3000 nM
Second compound 10 µM
  IC50: > 3000 nM
Second compound 0.0316 µM, first compound 0.00949 µM
  viability, T/C: 95.6%
Second compound 0.0316 µM, first compound 0.03 µM
  viability, T/C: 65.1%
Second compound 0.0316 µM, first compound 0.0949 µM
  viability, T/C: 50.2%
Second compound 0.0316 µM, first compound 0.3 µM
  viability, T/C: 57%
Second compound 0.0316 µM, first compound 0.949 µM
  viability, T/C: 56.9%
Second compound 0.0316 µM, first compound 3 µM
  viability, T/C: 60.2%
Second compound 0.1 µM, first compound 0.00949 µM
  viability, T/C: 95.3%
Second compound 0.1 µM, first compound 0.03 µM
  viability, T/C: 63.3%
Second compound 0.1 µM, first compound 0.0949 µM
  viability, T/C: 55.4%
Second compound 0.1 µM, first compound 0.3 µM
  viability, T/C: 54.8%
Second compound 0.1 µM, first compound 0.949 µM
  viability, T/C: 61.2%
Second compound 0.1 µM, first compound 3 µM
  viability, T/C: 50.2%
Second compound 0.316 µM, first compound 0.00949 µM
  viability, T/C: 88.7%
Second compound 0.316 µM, first compound 0.03 µM
  viability, T/C: 69.6%
Second compound 0.316 µM, first compound 0.0949 µM
  viability, T/C: 54.2%
Second compound 0.316 µM, first compound 0.3 µM
  viability, T/C: 58.2%
Second compound 0.316 µM, first compound 0.949 µM
  viability, T/C: 57.9%
Second compound 0.316 µM, first compound 3 µM
  viability, T/C: 54.9%
Second compound 1 µM, first compound 0.00949 µM
  viability, T/C: 86.3%
Second compound 1 µM, first compound 0.03 µM
  viability, T/C: 62.6%
Second compound 1 µM, first compound 0.0949 µM
  viability, T/C: 53.7%
Second compound 1 µM, first compound 0.3 µM
  viability, T/C: 51.3%
Second compound 1 µM, first compound 0.949 µM
  viability, T/C: 57.4%
Second compound 1 µM, first compound 3 µM
  viability, T/C: 50.9%
Second compound 3.16 µM, first compound 0.00949 µM
  viability, T/C: 85.5%
Second compound 3.16 µM, first compound 0.03 µM
  viability, T/C: 65.7%
Second compound 3.16 µM, first compound 0.0949 µM
  viability, T/C: 55.8%
Second compound 3.16 µM, first compound 0.3 µM
  viability, T/C: 54.6%
Second compound 3.16 µM, first compound 0.949 µM
  viability, T/C: 59.2%
Second compound 3.16 µM, first compound 3 µM
  viability, T/C: 56%
Second compound 10 µM, first compound 0.00949 µM
  viability, T/C: 80%
Second compound 10 µM, first compound 0.03 µM
  viability, T/C: 66.3%
Second compound 10 µM, first compound 0.0949 µM
  viability, T/C: 60.2%
Second compound 10 µM, first compound 0.3 µM
  viability, T/C: 61.2%
Second compound 10 µM, first compound 0.949 µM
  viability, T/C: 60.9%
Second compound 10 µM, first compound 3 µM
  viability, T/C: 56.5%
